Experiment: Solubility of alkyl para-hydroxybenzoates in a solubilizer/solvent (80° C., stirring one hour, dissolution monitored over time)
Assay type: physicochemical
Settings: comparative; same amount (60% by weight) in water, conventionally used solvent
Method: Protocol: The alkyl para-hydroxybenzoates are weighed out and placed in a hermetic pill bottle. The required amount of lipophilic amino acid derivative (solubilizer) is added. The suspension is brought to 80° C. and stirred. by magnetic stirring for one hour. The dissolution or non-dissolution of the alkyl para-hydroxybenzoate and its change over time are then monitored. The insolubility of the alkyl para-hydroxybenzoate in the solubilizer is characterized macroscopically by a precipitate or just a cloudy solution, and microscopically by the presence of crystals.

For CCCOC(=O)c1ccc(O)cc1 [propyl para-hydroxybenzoate], the “dissolution or non-dissolution in water” value was “formation of insoluble crystals and a paste”.
